Experimental data: US6586420B1, “Quinolinecarboxylic acid derivative or its salt” (Wakunaga Pharmaceutical Co., Ltd., priority 1999, dated 2003)
≈ marks a conversion by molar mass, not a printed value.

Assays:
female ICR mouse = test: Test on phototoxicity (ear erythema after UV exposure); assay type: in vivo; details: 40 mg/kg/10 mL intravenous, UV 320 to 400 nm for 4 hours; for Phototoxicity average score (ears): 0 point no abnormality to 3 points heavy erythema or edema
Method: (2) Test on Phototoxicity
The phototoxicity was tested in accordance with the following method.
After intravenous administration (40 mg/kg/10 mL) of each of the test compounds to a female ICR mouse (5-6 week old), the mouse was exposed to ultraviolet rays (320 to 400 nm, 1.8 mW/cm^2/sec) for 4 hours.
no abnormality (0 point); slight erythema (1 point); medium erythema (2 points); and heavy erythema or edema (3 points)

K. peumoniae KC-1 = test: Test on antibacterial action (MIC, standard method of Japan Society of Chemotherapy); assay type: cell-based; details: for MIC: read-out: minimum growth inhibitory concentration (MIC)
Method: (§1) (1) Test on Antibacterial Action
(§2) In accordance with the standard method established by Japan Society of Chemotherapy (CHEMOTHERAPY, 29(1),76(1981)), the minimum growth inhibitory concentration (MIC: μg/mL) was measured.

B. subtilis ATCC6633 = test: as above; assay type: cell-based; details: for MIC: Bacillus subtilis, read-out: minimum growth inhibitory concentration (MIC)
Method: as §1, §2

E. coli NIHJ-JC2 = test: as above; assay type: cell-based; details: for MIC: Escherichia coli, NIHJJC2, read-out: minimum growth inhibitory concentration (MIC)
Method: as §1, §2

S. aureus Smith = test: as above; assay type: cell-based; details: for MIC: Staphylococcus aureus, read-out: minimum growth inhibitory concentration (MIC)
Method: as §1, §2

MRSA W200 = test: as above; assay type: cell-based; details: for MIC: Staphylococcus aureus, read-out: minimum growth inhibitory concentration (MIC)
Method: as §1, §2

S. epidermidis IFO12293 = test: as above; assay type: cell-based; details: for MIC: Staphylococcus epidermidis, read-out: minimum growth inhibitory concentration (MIC)
Method: as §1, §2

P. aeruginosa IFO3445 = test: as above; assay type: cell-based; details: for MIC: Pseudomonas aeruginosa, read-out: minimum growth inhibitory concentration (MIC)
Method: as §1, §2

S. aureus 209P = test: as above; assay type: cell-based; details: for MIC: Staphylococcus aureus, read-out: minimum growth inhibitory concentration (MIC)
Method: as §1, §2

[1] = Test on photostability (UV spectra after UVA exposure of solution); assay type: physicochemical; details: solution in 0.08% NaOH diluted 100-fold with PBS(-); UVA (black light) up to 20 minutes; UV spectra 190 to 400 nm
Method: (2) Test on Photostability
The test on photostability was made in accordance with the following method.
With 0.08% NaOH, 1 mg/mL of the test compound was prepared. The resulting solution was diluted 100-fold with PBS(−). Into the wells of a 24-well plate, 1.5 ml portions of the diluted solution were poured, respectively. Just after the solution was exposed to UVA under an UV light (black light, product of Toshiba Corporation) for 0, 2, 5, 10 and 20 minutes, UV spectra within a range of 190 to 400 nm were measured (“UV-240”, product of Shimadzu Corporation).

| Structure (SMILES) | MIC (K. peumoniae KC-1) | MIC (B. subtilis ATCC6633) | MIC (E. coli NIHJ-JC2) | MIC (S. aureus Smith) | MIC (MRSA W200) | MIC (S. epidermidis IFO12293) | MIC (P. aeruginosa IFO3445) | MIC (S. aureus 209P) | minimum growth inhibitory concentration (MIC) (K. peumoniae KC-1) | minimum growth inhibitory concentration (MIC) (B. subtilis ATCC6633) | minimum growth inhibitory concentration (MIC) (E. coli NIHJ-JC2) | minimum growth inhibitory concentration (MIC) (S. aureus Smith) | minimum growth inhibitory concentration (MIC) (MRSA W200) | minimum growth inhibitory concentration (MIC) (S. epidermidis IFO12293) | Phototoxicity frequency (female ICR mouse; 0 hour after exposure) | Phototoxicity average score (ears) (female ICR mouse; 0 hour after exposure) | Phototoxicity frequency (female ICR mouse; 24 hours after exposure) | Phototoxicity average score (ears) (female ICR mouse; 24 hours after exposure) | Phototoxicity frequency (female ICR mouse; 48 hours after exposure) | Phototoxicity average score (ears) (female ICR mouse; 48 hours after exposure) | further results |
| --- | --- | --- | --- | --- | --- | --- | --- | --- | --- | --- | --- | --- | --- | --- | --- | --- | --- | --- | --- | --- | --- |
| NC1CCN(c2nc3c(cc2F)c(=O)c(C(=O)O)cn3-c2ccc(F)cc2F)C1 (racemic) [Tosufloxacin, (±)-7-(3-amino-1-pyrrolidinyl)-6-fluoro-1-(2,4-difluorophenyl)-1,4-dihydro-4-oxo-1,8-naphthyridine-3-carboxylic acid] |  |  |  |  |  |  |  |  |  |  |  |  |  |  | 4/5 | 1.8 | 4/5 | 0.8 | 1/5 | 0.2 |  |
| O=C(O)c1cn(C2CC2)c2cc(N3CCNCC3)c(F)cc2c1=O [Ciprofloxacin, 1-cyclopropyl-6-fluoro-7-(1-piperazinyl)-1,4-dihydro-4-oxoquinoline-3-carboxylic acid] | 0.025 µg/mL (≈ 0.0754 µM) | 0.05 µg/mL (≈ 0.151 µM) | 0.013 µg/mL (≈ 0.0392 µM) | 0.2 µg/mL (≈ 0.604 µM) | 0.78 µg/mL (≈ 2.35 µM) | 0.78 µg/mL (≈ 2.35 µM) | 0.39 µg/mL (≈ 1.18 µM) | 0.2 µg/mL (≈ 0.604 µM) |  |  |  |  |  |  |  |  |  |  |  |  |  |
| Nc1nc(-n2cc(C(=O)O)c(=O)c3cc(F)c(N4CC(O)C4)c(Cl)c32)c(F)cc1F.OC1CNC1 [Comparative compound 1, 1-(6-amino-3,5-difluoropyridin-2-yl)-8-chloro-6-fluoro-7-(3-hydroxyazetidin-1-yl)-1,4-dihydro-4-oxoquinoline-3-carboxylic acid.3-hydroxyazetidine salt] |  |  |  |  |  |  |  |  | 0.05 µg/mL | 0.05 µg/mL | 0.05 µg/mL | 0.003 µg/mL | 0.006 µg/mL | 0.013 µg/mL | 0/4 | 0 | 0/4 | 0 | 0/4 | 0 | minimum growth inhibitory concentration (MIC) (P. aeruginosa IFO3445): 0.39 µg/mL; minimum growth inhibitory concentration (MIC) (S. aureus 209P): 0.006 µg/mL |
| Nc1nc(-n2cc(C(=O)O)c(=O)c3cc(F)c(N4CC(O)C4)c(F)c32)c(F)cc1F [Comparative compound 2, 1-(6-amino-3,5-difluoropyridin-2-yl)-6,8-difluoro-7-(3-hydroxyzetidin-1-yl)-1,4-dihydro-4-oxoquinoline-3-carboxylic acid] |  |  |  |  |  |  |  |  | 0.10 µg/mL | 0.025 µg/mL | 0.10 µg/mL | 0.006 µg/mL | 0.025 µg/mL | 0.050 µg/mL | 0/4 | 0 | 0/4 | 0 | 0/4 | 0 | minimum growth inhibitory concentration (MIC) (P. aeruginosa IFO3445): 0.39 µg/mL; minimum growth inhibitory concentration (MIC) (S. aureus 209P): 0.013 µg/mL |

Second part, led by results:

| MIC (K. peumoniae KC-1) | MIC (B. subtilis ATCC6633) | MIC (E. coli NIHJ-JC2) | MIC (S. aureus Smith) | MIC (MRSA W200) | MIC (S. epidermidis IFO12293) | MIC (P. aeruginosa IFO3445) | MIC (S. aureus 209P) | minimum growth inhibitory concentration (MIC) (K. peumoniae KC-1) | minimum growth inhibitory concentration (MIC) (B. subtilis ATCC6633) | minimum growth inhibitory concentration (MIC) (E. coli NIHJ-JC2) | minimum growth inhibitory concentration (MIC) (S. aureus Smith) | minimum growth inhibitory concentration (MIC) (MRSA W200) | minimum growth inhibitory concentration (MIC) (S. epidermidis IFO12293) | Structure (SMILES) | Phototoxicity frequency (female ICR mouse; 0 hour after exposure) | Phototoxicity average score (ears) (female ICR mouse; 0 hour after exposure) | Phototoxicity frequency (female ICR mouse; 24 hours after exposure) | Phototoxicity average score (ears) (female ICR mouse; 24 hours after exposure) | Phototoxicity frequency (female ICR mouse; 48 hours after exposure) | Phototoxicity average score (ears) (female ICR mouse; 48 hours after exposure) | further results |
| --- | --- | --- | --- | --- | --- | --- | --- | --- | --- | --- | --- | --- | --- | --- | --- | --- | --- | --- | --- | --- | --- |
| 0.05 µg/mL (≈ 0.119 µM) | 0.025 µg/mL (≈ 0.0595 µM) | 0.05 µg/mL (≈ 0.119 µM) | < 0.003 µg/mL | 0.013 µg/mL (≈ 0.0309 µM) | 0.013 µg/mL (≈ 0.0309 µM) | 0.39 µg/mL (≈ 0.928 µM) | 0.006 µg/mL (≈ 0.0143 µM) |  |  |  |  |  |  | Cc1c(N2CC(O)C2)c(F)cc2c(=O)c(C(=O)O)cn(-c3nc(N)c(F)cc3F)c12 [Compound 1, 1-(6-amino-3,5-difluoropyridin-2-yl)-6-fluoro-7-(3-hydroxyazetidin-1-yl)-8-methyl-1,4-dihydro-4-oxoquinoline-3-carboxylic acid] | 0/4 | 0 | 0/4 | 0 | 0/4 | 0 | Photostability: decomposition by exposure to ultraviolet rays [1]: hardly decomposed |
| 0.05 µg/mL (≈ 0.138 µM) | 0.1 µg/mL (≈ 0.277 µM) | 0.05 µg/mL (≈ 0.138 µM) | 0.1 µg/mL (≈ 0.277 µM) | 0.39 µg/mL (≈ 1.08 µM) | 0.39 µg/mL (≈ 1.08 µM) | 0.78 µg/mL (≈ 2.16 µM) | 0.2 µg/mL (≈ 0.553 µM) |  |  |  |  |  |  | C[C@H]1COc2c(N3CCN(C)CC3)c(F)cc3c(=O)c(C(=O)O)cn1c23 [Levofloxacin, S-(−)-9-fluoro-2,3-dihydro-3-methyl-10-(4-methyl-1-piperazinyl)-7-oxo-7H-pyrido[1,2,3-de][1,4]-benzoxazine-6-carboxylic acid] |  |  |  |  |  |  |  |
